Test results taken from patent publication US10144715B2, “Piperazine derivatives as liver X receptor modulators” (priority 2014, dated 2018).
Where two headings read alike, the source gives them in different places.

Tests used:
[1] = target: Gal4 DNA binding domain fused to the LBD of LXRα in HEK293 cells (Homo sapiens (Human), UniProt Q13133); experiment: LXR luciferase transcriptional reporter gene assay, agonist mode, LXRα; format: cell-based; conditions: for EC50: read-out: Cell LXRα EC50
[2] = target: Gal4 DNA binding domain fused to the LBD of LXRβ in HEK293 cells (Homo sapiens (Human), UniProt P55055); experiment: cell-based
Sequence of Gal4 DNA binding domain fused to the LBD of LXRβ in HEK293 cells (P55055 222-460 limits assumed): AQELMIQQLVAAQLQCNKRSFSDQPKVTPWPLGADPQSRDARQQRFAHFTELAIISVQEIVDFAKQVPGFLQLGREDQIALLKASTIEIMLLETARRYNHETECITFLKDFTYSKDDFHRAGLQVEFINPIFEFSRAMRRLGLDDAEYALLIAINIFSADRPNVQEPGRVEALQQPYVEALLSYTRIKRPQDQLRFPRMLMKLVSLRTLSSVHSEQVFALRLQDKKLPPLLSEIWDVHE

LXR β LBD protein = LXR β LBD protein (Homo sapiens (Human), UniProt P55055); experiment: biochemical; format: binding
Sequence of LXR β LBD protein (P55055 222-460 limits assumed): as above

LXR α LBD protein = LXR α LBD protein (Homo sapiens (Human), UniProt Q13133); experiment: LXR α radioligand binding assay (SPA, competition with [3H]TO901317); conditions: read-out: LXRα Binding Ki
Sequence of LXR α LBD protein (Q13133 209-447): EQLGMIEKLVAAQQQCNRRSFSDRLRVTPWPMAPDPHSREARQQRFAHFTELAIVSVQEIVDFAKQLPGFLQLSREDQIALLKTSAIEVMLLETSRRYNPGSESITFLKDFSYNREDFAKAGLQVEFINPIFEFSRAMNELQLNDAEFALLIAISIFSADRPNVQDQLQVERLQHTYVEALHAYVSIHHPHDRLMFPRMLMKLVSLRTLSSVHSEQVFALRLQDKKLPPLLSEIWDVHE

Sequence of Gal4 DNA binding domain fused to the LBD of LXRα in HEK293 cells (Q13133 209-447): as above

Row | Ki (LXR β LBD protein) [nM] | Compound | Cell LXRα efficacy [1] | EC50 [1] [nM] | Cell LXRβ efficacy [2] | EC50 [2] [nM] | Ki (LXR β LBD protein; read-out: LXRβ Binding Ki) [nM] | Ki (LXR α LBD protein) [nM] | Cell LXRβ efficacy ([2]; agonist mode) | EC50 ([1]; agonist mode) [nM]
1 | – | CC(C)[C@@H]1CN(c2ccc(F)c(S(C)(=O)=O)c2)CCN1c1nc2cnccc2s1 [7-58, (R)-2-(4-(4-fluoro-3-(methylsulfonyl)phenyl)-2-isopropylpiperazin-1-yl)thiazolo[4,5-c]pyridine] | 6486 (31) % | 6490 | 1154 (31) % | 1150 | 509 | 2960 | – | –
2 | – | CC(C)[C@@H]1CN(c2ccc(F)c(S(C)(=O)=O)c2)CCN1c1nc2ncccc2s1 [7-59, (R)-2-(4-(4-fluoro-3-(methylsulfonyl)phenyl)-2-isopropylpiperazin-1-yl)thiazolo[4,5-b]pyridine] | 827 (84) % | 827 | 289 (83) % | 289 | 39 | 281 | – | –
3 | – | COC(=O)c1cnc(N2CCN(c3ccc(F)c(S(C)(=O)=O)c3)CC2C(C)(C)C)nc1C(F)(F)F (stereo not drawn) [9-5, methyl 2-(2-(tert-butyl)-4-(4-fluoro-3-(methylsulfonyl)phenyl)piperazin-1-yl)-4-(trifluoromethyl)pyrimidine-5-carboxylate] | 504 (46) % | 504 | – | 82 | 9 | 41 | 82 (21) % | –
4 | – | CNS(=O)(=O)c1cc(N2CCN(c3ncc(C(=O)OC)c(C(F)(F)F)n3)[C@H](C(C)C)C2)ccc1F [9-6, methyl (R)-2-(4-(4-fluoro-3-(N-methylsulfamoyl)phenyl)-2-isopropylpiperazin-1-yl)-4-(trifluoromethyl)pyrimidine-5-carboxylate] | 503 (59) % | – | 74 (41) % | 74 | 8 | 101 | – | 503
5 | – | CCOC(=O)c1cnc(N2CCN(c3cccc(S(C)(=O)=O)c3)C[C@H]2c2nc(C)cs2)nc1C(F)(F)F [9-8, ethyl (S)-2-(4-(3-(methylsulfonyl)phenyl)-2-(4-methylthiazol-2-yl)piperazin-1-yl)-4-(trifluoromethyl)pyrimidine-5-carboxylate] | – | – | – | 2470 | 659 | 2340 | 2469 (14) % | > 20000
6 | – | CCOC(=O)c1cnc(N2CCN(c3ccc(-c4nnc(C)o4)c(S(C)(=O)=O)c3)C[C@H]2C(C)C)nc1C(F)(F)F [9-11, ethyl (R)-2-(2-isopropyl-4-(4-(5-methyl-1,3,4-oxadiazol-2-yl)-3-(methylsulfonyl)phenyl)piperazin-1-yl)-4-(trifluoromethyl)pyrimidine-5-carboxylate] | – | > 20000 | – | 869 | 839 | 2140 | 869 (9) % | –
7 | – | CCOC(=O)c1cnc(N2CCN(c3ccc(-c4nnc(C)s4)c(S(C)(=O)=O)c3)C[C@H]2C(C)C)nc1C(F)(F)F [9-13, ethyl (R)-2-(2-isopropyl-4-(4-(5-methyl-1,3,4-thiadiazol-2-yl)-3-(methylsulfonyl)phenyl)piperazin-1-yl)-4-(trifluoromethyl)pyrimidine-5-carboxylate] | 2862 (21) % | – | – | 1200 | 171 | 703 | 1204 (34) % | 2860
8 | – | CC(C)[C@@H]1CN(c2ccc(F)c(S(N)(=O)=O)c2)CCN1c1ncc(C(C)(C)O)c(C(F)(F)F)n1 [10-2, (R)-2-fluoro-5-(4-(5-(2-hydroxypropan-2-yl)-4-(trifluoromethyl)pyrimidin-2-yl)-3-isopropylpiperazin-1-yl)benzenesulfonamide] | 2692 (45) % | – | – | 475 | 34 | 469 | 475 (39) % | 2690
9 | – | CC(C)(O)c1cnc(N2CCN(c3ccc(F)c(S(C)(=O)=O)c3)CC2C(C)(C)C)nc1C(F)(F)F (stereo not drawn) [10-4, 2-(2-(2-(tert-butyl)-4-(4-fluoro-3-(methylsulfonyl)phenyl)piperazin-1-yl)-4-(trifluoromethyl)pyrimidin-5-yl)propan-2-ol] | 1034 (28) % | 1030 | – | 128 | 6 | 59 | 128 (13) % | –
10 | – | CC(C)[C@H]1CN(c2ccc(CO)c(S(C)(=O)=O)c2)CCN1c1ncc(C(C)(C)O)c(C(F)(F)F)n1 [10-5, (S)-2-(2-(4-(4-(hydroxymethyl)-3-(methylsulfonyl)phenyl)-2-isopropylpiperazin-1-yl)-4-(trifluoromethyl)pyrimidin-5-yl)propan-2-ol] | 3627 (67) % | – | – | 980 | 230 | 1280 | 980 (58) % | 3630
11 | – | CC(C)[C@@H]1CN(c2ccc(CO)c(S(C)(=O)=O)c2)CCN1c1ncc(C(C)(C)O)c(C(F)(F)F)n1 [10-7, (R)-2-(2-(4-(4-(hydroxymethyl)-3-(methylsulfonyl)phenyl)-2-isopropylpiperazin-1-yl)-4-(trifluoromethyl)pyrimidin-5-yl)propan-2-ol] | 1520 (51) % | – | – | 235 | 18 | 261 | 235 (40) % | 1520
12 | – | CC(C)[C@@H]1CN(c2ccc(F)c(S(C)(=O)=O)c2)CCN1c1nc(C(F)(F)F)c(C(C)(C)O)o1 [10-8, (R)-2-(2-(4-(4-fluoro-3-(methylsulfonyl)phenyl)-2-isopropylpiperazin-1-yl)-4-(trifluoromethyl)oxazol-5-yl)propan-2-ol] | 4655 (96) % | 4660 | – | 901 | 132 | 2190 | 901 (76) % | –
13 | – | CC(C)(O)c1cc(CN2CCN(c3cccc(S(C)(=O)=O)c3)C[C@H]2c2ccccc2)ccc1C(F)(F)F [10-14, (R)-2-(5-((4-(3-(methylsulfonyl)phenyl)-2-phenylpiperazin-1-yl)methyl)-2-(trifluoromethyl)phenyl)propan-2-ol] | – | – | – | > 20000 | 1480 | 4560 | – | > 20000
14 | – | CC(C)[C@@H]1CN(c2ccc(F)c(S(N)(=O)=O)c2)CCN1c1ncc(CO)c(C(F)(F)F)n1 [11-2, (R)-2-fluoro-5-(4-(5-(hydroxymethyl)-4-(trifluoromethyl)pyrimidin-2-yl)-3-isopropylpiperazin-1-yl)benzenesulfonamide] | 1336 (57) % | 1340 | – | 243 | 35 | 357 | 243 (46) % | –
15 | – | CC(C)[C@@H]1CN(c2ccc(Cl)c(S(C)(=O)=O)c2)CCN1c1ncc(CO)c(C(F)(F)F)n1 [11-3, (R)-(2-(4-(4-chloro-3-(methylsulfonyl)phenyl)-2-isopropylpiperazin-1-yl)-4-(trifluoromethyl)pyrimidin-5-yl)methanol] | 1014 (62) % | 1010 | – | 95 | 6 | 146 | 95 (44) % | –
16 | – | CS(=O)(=O)c1cc(N2CCN(c3ncc(CO)c(C(F)(F)F)n3)[C@H](c3ccc(F)cc3)C2)ccc1F [11-7, (R)-(2-(4-(4-fluoro-3-(methylsulfonyl)phenyl)-2-(4-fluorophenyl)piperazin-1-yl)-4-(trifluoromethyl)pyrimidin-5-yl)methanol] | 2240 (13) % | – | – | 315 | 85 | 1160 | 315 (14) % | 2240
17 | – | Cc1coc(-c2ccc(N3CCN(c4ncc(CO)c(C(F)(F)F)n4)[C@H](C(C)C)C3)cc2S(C)(=O)=O)n1 [11-8, (R)-(2-(2-isopropyl-4-(4-(4-methyloxazol-2-yl)-3-(methylsulfonyl)phenyl)piperazin-1-yl)-4-(trifluoromethyl)pyrimidin-5-yl)methanol] | 2934 (53) % | – | – | 405 | 133 | 1160 | 405 (53) % | 2930
18 | – | Cc1nnc(-c2ccc(N3CCN(c4ncc(CO)c(C(F)(F)F)n4)[C@H](C(C)C)C3)cc2S(C)(=O)=O)o1 [11-9, (R)-(2-(2-isopropyl-4-(4-(5-methyl-1,3,4-oxadiazol-2-yl)-3-(methylsulfonyl)phenyl)piperazin-1-yl)-4-(trifluoromethyl)pyrimidin-5-yl)methanol] | 3283 (31) % | 3280 | – | 603 | 247 | 1970 | 603 (39) % | –
19 | – | Cc1noc(-c2ccc(N3CCN(c4ncc(CO)c(C(F)(F)F)n4)[C@H](C(C)C)C3)cc2S(C)(=O)=O)n1 [11-10, (R)-(2-(2-isopropyl-4-(4-(3-methyl-1,2,4-oxadiazol-5-yl)-3-(methylsulfonyl)phenyl)piperazin-1-yl)-4-(trifluoromethyl)pyrimidin-5-yl)methanol] | 6291 (28) % | – | – | 2250 | 773 | > 3330 | 2253 (36) % | 6290
20 | 515 | Cc1nc(N2CCN(c3ccc(F)c(S(C)(=O)=O)c3)C[C@H]2C(C)C)ncc1CO [11-14, (R)-(2-(4-(4-fluoro-3-(methylsulfonyl)phenyl)-2-isopropylpiperazin-1-yl)-4-methylpyrimidin-5-yl)methanol] | – | > 20000 | – | > 20000 | – | > 3330 | – | –
21 | – | CNS(=O)(=O)c1cc(N2CCN(c3ncc(C(C)O)c(C(F)(F)F)n3)[C@H](C(C)C)C2)ccc1F (stereo partly drawn) [12-8, 2-fluoro-5-((3R)-4-(5-(1-hydroxyethyl)-4-(trifluoromethyl)pyrimidin-2-yl)-3-isopropylpiperazin-1-yl)-N-methylbenzenesulfonamide] | 503 (56) % | – | – | 59 | 4 | 126 | 59 (46) % | 503
